Data as given in patent US4778816A, “Anti-asthmatic composition and process for preparing the same” (Wakamoto Pharmaceutical Co., Ltd., priority 1984, dated 1988).

How the values were obtained:
[1] = tested on: release of SRS-A; experiment: Inhibitory effect on the release of SRS-A from human lung slices (Test Example 3); type: cell-based; settings: average of three measurements
Experimental: (§1) Inhibitory effect of MTB on the release of histamine and SRS-A from human lung slices
(§2) A macrographically normal portion was sampled from a human lung excised in a lung cancer operation and was passively sensitized with human atopy blood serum in a similar manner to the case of the rhesus monkey lung slices mentioned above. Thereafter the histamine and SRS-A release-inhibiting effect of the test medicines was measured in the same manner as in Test Example 1.

[2] = tested on: release of SRS-A; experiment: Inhibitory effect on the release of SRS-A from guinea pig lung slices (Test Example 1); type: cell-based; settings: for SRS-A release-inhibition rate: average of three measurements
[3] = tested on: release of histamine; experiment: Inhibitory effect on the release of histamine from human lung slices (Test Example 3); type: cell-based; settings: average of three measurements
Experimental: as §1, §2

[4] = tested on: release of histamine; experiment: Inhibitory effect on the release of histamine from guinea pig lung slices (Test Example 1); type: cell-based; settings: for Histamine release-inhibition rate: average of three measurements
[5] = tested on: experimental asthma; experiment: Effect of preventing experimental asthma (Test Example 4); type: in vivo, guinea pig; settings: 250 mg/kg oral; for Tidal volume-decrease rate: 60 min before causing asthma, average of seven
[6] = tested on: release of SRS-A; experiment: Inhibitory effect on the release of SRS-A from rhesus monkey lung slices (Test Example 2); type: cell-based; settings: average of three measurements
Experimental: (§3) Inhibitory effect of MTB on the release of histamine and SRS-A from rhesus monkey lung slices
(§4) Rhesus monkey lungs were cut into slices, which were passively sensitized with human atopy blood serum.
(§5) Thereafter the test was conducted in the same manner as in Test Example 1 to compare the histamine and SRS-A release-inhibition effect of the present medicine MTB with that of the known medicine DSCG.

[7] = tested on: release of histamine; experiment: Inhibitory effect on the release of histamine from rhesus monkey lung slices (Test Example 2); type: cell-based; settings: average of three measurements
Experimental: as §3, §4, §5

[8] = tested on: Dog; experiment: Acute toxicity in dog; type: in vivo, Dog (beagle); settings: dog female, p.o.
From the text: (§6) Animals tested were as follows.
(§7) Dog: beagle, weight 8 kg, 3 dogs per group

[9] = Acute toxicity in dog; type: in vivo, Dog (beagle); settings: in vivo, po; dog male, p.o.; read-out: Acute toxicity LD 50
From the text: as §6, §7

[10] = Solubility of MTB original powder in water; type: physicochemical
[11] = Acute toxicity in mouse; design: species or system Mouse (ddy); settings: in vivo, read-out: Acute toxicity LD 50
From the text: as §6
Mouse: ddy, weight 20-23 g, 20 mice per group

[12] = Differential thermal scanning calorimeter measurement of crystal structure; type: physicochemical; settings: DSC 30 type, Shimadzu
From the text: From this observation, it has been confirmed that the treatment with the non-aqueous solvent in the new preparation process not only increases the mixing efficiency but also brings about a change in the crystal structure itself of MTB.

[13] = tested on: release of histamine; settings: Japanese Journal of Pharmacology, Vol. 32, pages 689-697, 1982; cited from earlier work
[14] = Acute toxicity in rat; design: species or system Rat (wistar); settings: in vivo, read-out: Acute toxicity LD 50
From the text: as §6
Rat: wistar, weight 110-130 g 10 rats per group

## COc1ccc(/C=C/C(=O)Nc2ccccc2C(=O)O)cc1OC [N-5', tranilast, reference compound]
[1]; 10^-4 g/ml
  SRS-A release-inhibition rate: 37%
[1]; 10^-5 g/ml
  SRS-A release-inhibition rate: 32%
[2]; 10^-4 g/ml
  SRS-A release-inhibition rate: 54%
[2]; 10^-5 g/ml
  SRS-A release-inhibition rate: 11%
[3]; 10^-4 g/ml
  Histamine release-inhibition rate: 31%
[3]; 10^-5 g/ml
  Histamine release-inhibition rate: 16%
[4]; 10^-4 g/ml
  Histamine release-inhibition rate: 16%
[4]; 10^-5 g/ml
  Histamine release-inhibition rate: 5%
[5]; 0 min
  Tidal volume-decrease rate: 0%
[5]; 1 min
  Tidal volume-decrease rate: 26%
[5]; 2 min
  Tidal volume-decrease rate: 24%
[5]; 3 min
  Tidal volume-decrease rate: 24%
[5]; 4 min
  Tidal volume-decrease rate: 26%
[5]; 5 min
  Tidal volume-decrease rate: 23%
[5]; 6 min
  Tidal volume-decrease rate: 25%
[5]; 8 min
  Tidal volume-decrease rate: 28%
[5]; 10 min
  Tidal volume-decrease rate: 24%
[5]; 15 min
  Tidal volume-decrease rate: 27%
[5]; 20 min
  Tidal volume-decrease rate: 22%
[5]; 30 min
  Tidal volume-decrease rate: 19%

## O=C(O)c1cc(=O)c2c(OCC(O)COc3cccc4oc(C(=O)O)cc(=O)c34)cccc2o1 [DSCG, disodium cromoglicate, reference compound]
[1]; 10^-4 g/ml
  SRS-A release-inhibition rate: 39%
[1]; 10^-5 g/ml
  SRS-A release-inhibition rate: 41%
[6]; 10^-4 g/ml
  SRS-A release-inhibition rate: 2%
[6]; 10^-5 g/ml
  SRS-A release-inhibition rate: 0%
[7]; 10^-4 g/ml
  Histamine release-inhibition rate: 0%
[7]; 10^-5 g/ml
  Histamine release-inhibition rate: 0%
[2]; 10^-4 g/ml
  SRS-A release-inhibition rate: 13%
[2]; 10^-5 g/ml
  SRS-A release-inhibition rate: 9%
[3]; 10^-4 g/ml
  Histamine release-inhibition rate: 18%
[3]; 10^-5 g/ml
  Histamine release-inhibition rate: 13%
[4]; 10^-4 g/ml
  Histamine release-inhibition rate: 2%
[4]; 10^-5 g/ml
  Histamine release-inhibition rate: 0%

## CCCCOC(=O)C(=O)Nc1cccc(-c2nnn[nH]2)c1 [MTB, 5-(3-n-butyloxalyl-aminophenyl) tetrazole]
[1]; 10^-4 g/ml
  SRS-A release-inhibition rate: 47%
[1]; 10^-5 g/ml
  SRS-A release-inhibition rate: 47%
[1]; 10^-6 g/ml
  SRS-A release-inhibition rate: 43%
[1]; 10^-7 g/ml
  SRS-A release-inhibition rate: 31%
[1]; 10^-8 g/ml
  SRS-A release-inhibition rate: 2%
[8]
  Acute toxicity LD 50: > 4000 mg/kg
[9]
  LD50: > 4000 mg/kg
[6]; 10^-4 g/ml
  SRS-A release-inhibition rate: 16%
[6]; 10^-5 g/ml
  SRS-A release-inhibition rate: 17%
[6]; 10^-6 g/ml
  SRS-A release-inhibition rate: 18%
[6]; 10^-7 g/ml
  SRS-A release-inhibition rate: 0%
[7]; 10^-4 g/ml
  Histamine release-inhibition rate: 27%
[7]; 10^-5 g/ml
  Histamine release-inhibition rate: 2%
[7]; 10^-6 g/ml
  Histamine release-inhibition rate: 12%
[7]; 10^-7 g/ml
  Histamine release-inhibition rate: 0%
[2]
  SRS-A release-inhibition rate compared with DSCG and N-5' (in words): remarkably high
[2]; 10^-4 g/ml
  SRS-A release-inhibition rate: 64%
[2]; 10^-5 g/ml
  SRS-A release-inhibition rate: 66%
[2]; 10^-6 g/ml
  SRS-A release-inhibition rate: 49%
[2]; 10^-7 g/ml
  SRS-A release-inhibition rate: 28%
[2]; 10^-8 g/ml
  SRS-A release-inhibition rate: 2%
[3]; 10^-4 g/ml
  Histamine release-inhibition rate: 27%
[3]; 10^-5 g/ml
  Histamine release-inhibition rate: 23%
[3]; 10^-6 g/ml
  Histamine release-inhibition rate: 23%
[3]; 10^-7 g/ml
  Histamine release-inhibition rate: 8%
[3]; 10^-8 g/ml
  Histamine release-inhibition rate: 0%
[10]
  solubility in water (in words): practically insoluble in water
[11]; ip, mouse female, i.p.
  LD50: 1160 mg/kg
[11]; ip, mouse male, i.p.
  LD50: 1120 mg/kg
[11]; iv, mouse female, i.v.
  LD50: 1220 mg/kg
[11]; iv, mouse male, i.v.
  LD50: 1130 mg/kg
[11]; po, mouse female, p.o.
  LD50: > 4000 mg/kg
[11]; po, mouse male, p.o.
  LD50: > 4000 mg/kg
[11]; sc, mouse female, s.c.
  LD50: > 4000 mg/kg
[11]; sc, mouse male, s.c.
  LD50: > 4000 mg/kg
[4]
  histamine release-inhibition rate compared with DSCG and N-5' (in words): remarkably high
[4]; 10^-4 g/ml
  Histamine release-inhibition rate: 37%
[4]; 10^-5 g/ml
  Histamine release-inhibition rate: 30%
[4]; 10^-6 g/ml
  Histamine release-inhibition rate: 14%
[4]; 10^-7 g/ml
  Histamine release-inhibition rate: 6%
[4]; 10^-8 g/ml
  Histamine release-inhibition rate: 8%
[5]; 0 min
  Tidal volume-decrease rate: 0%
[5]
  decrease in unit tidal volume compared with control and N-5' (in words): remarkably low rate of decrease in unit tidal volume
[5]; 1 min
  Tidal volume-decrease rate: 17%
[5]; 2 min
  Tidal volume-decrease rate: 17%
[5]; 3 min
  Tidal volume-decrease rate: 21%
[5]; 4 min
  Tidal volume-decrease rate: 23%
[5]; 5 min
  Tidal volume-decrease rate: 21%
[5]; 6 min
  Tidal volume-decrease rate: 22%
[5]; 8 min
  Tidal volume-decrease rate: 21%
[5]; 10 min
  Tidal volume-decrease rate: 21%
[5]; 15 min
  Tidal volume-decrease rate: 14%
[5]; 20 min
  Tidal volume-decrease rate: 19%
[5]; 30 min
  Tidal volume-decrease rate: 15%
[12]
  peak of absorption indicating the crystal structure (DSC): shows a peak of absorption indicating the crystal structure
[13]
  anti-allergic action (in words): anti-allergic action, inhibiting the release of histamine
[14]; ip, rat female, i.p.
  LD50: 1430 mg/kg
[14]; ip, rat male, i.p.
  LD50: 1430 mg/kg
[14]; iv, rat female, i.v.
  LD50: 1160 mg/kg
[14]; iv, rat male, i.v.
  LD50: 1110 mg/kg
[14]; po, rat female, p.o.
  LD50: > 4000 mg/kg
[14]; po, rat male, p.o.
  LD50: > 4000 mg/kg
[14]; sc, rat female, s.c.
  LD50: > 4000 mg/kg
[14]; sc, rat male, s.c.
  LD50: > 4000 mg/kg
